Data published in US11046699B2, “Pyrazolo-pyrimidin-amino-cycloalkyl compounds and their therapeutic uses” (RAPT THERAPEUTICS, INC., priority 2018, dated 2021).
pIC50: −log10 of the molar value. Like-named read-outs stand apart in the source and are kept apart here.

Molecular target: GCN2 (Homo sapiens, UniProt Q9P2K8)
Assay: GCN2 enzymatic endpoint assay: phosphorylation of GFP-eIF2α measured by TR-FRET (Lanthascreen)
Type: biochemical
Method in brief: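 Phosphorylated eIF2α read by Lanthascreen TR-FRET (acceptor 520 nm over donor 495 nm) after EDTA stop. The reaction ran 90 min at room temperature on 80 nM GFP-eIF2α with 2 μM ATP.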

[1] = tested as described in Example 77, compound and/or hydrochloride, dihydrochloride or trifluoroacetic acid salt, read-out: IC 50 Activity

Chain of GCN2 (Q9P2K8 whole entry): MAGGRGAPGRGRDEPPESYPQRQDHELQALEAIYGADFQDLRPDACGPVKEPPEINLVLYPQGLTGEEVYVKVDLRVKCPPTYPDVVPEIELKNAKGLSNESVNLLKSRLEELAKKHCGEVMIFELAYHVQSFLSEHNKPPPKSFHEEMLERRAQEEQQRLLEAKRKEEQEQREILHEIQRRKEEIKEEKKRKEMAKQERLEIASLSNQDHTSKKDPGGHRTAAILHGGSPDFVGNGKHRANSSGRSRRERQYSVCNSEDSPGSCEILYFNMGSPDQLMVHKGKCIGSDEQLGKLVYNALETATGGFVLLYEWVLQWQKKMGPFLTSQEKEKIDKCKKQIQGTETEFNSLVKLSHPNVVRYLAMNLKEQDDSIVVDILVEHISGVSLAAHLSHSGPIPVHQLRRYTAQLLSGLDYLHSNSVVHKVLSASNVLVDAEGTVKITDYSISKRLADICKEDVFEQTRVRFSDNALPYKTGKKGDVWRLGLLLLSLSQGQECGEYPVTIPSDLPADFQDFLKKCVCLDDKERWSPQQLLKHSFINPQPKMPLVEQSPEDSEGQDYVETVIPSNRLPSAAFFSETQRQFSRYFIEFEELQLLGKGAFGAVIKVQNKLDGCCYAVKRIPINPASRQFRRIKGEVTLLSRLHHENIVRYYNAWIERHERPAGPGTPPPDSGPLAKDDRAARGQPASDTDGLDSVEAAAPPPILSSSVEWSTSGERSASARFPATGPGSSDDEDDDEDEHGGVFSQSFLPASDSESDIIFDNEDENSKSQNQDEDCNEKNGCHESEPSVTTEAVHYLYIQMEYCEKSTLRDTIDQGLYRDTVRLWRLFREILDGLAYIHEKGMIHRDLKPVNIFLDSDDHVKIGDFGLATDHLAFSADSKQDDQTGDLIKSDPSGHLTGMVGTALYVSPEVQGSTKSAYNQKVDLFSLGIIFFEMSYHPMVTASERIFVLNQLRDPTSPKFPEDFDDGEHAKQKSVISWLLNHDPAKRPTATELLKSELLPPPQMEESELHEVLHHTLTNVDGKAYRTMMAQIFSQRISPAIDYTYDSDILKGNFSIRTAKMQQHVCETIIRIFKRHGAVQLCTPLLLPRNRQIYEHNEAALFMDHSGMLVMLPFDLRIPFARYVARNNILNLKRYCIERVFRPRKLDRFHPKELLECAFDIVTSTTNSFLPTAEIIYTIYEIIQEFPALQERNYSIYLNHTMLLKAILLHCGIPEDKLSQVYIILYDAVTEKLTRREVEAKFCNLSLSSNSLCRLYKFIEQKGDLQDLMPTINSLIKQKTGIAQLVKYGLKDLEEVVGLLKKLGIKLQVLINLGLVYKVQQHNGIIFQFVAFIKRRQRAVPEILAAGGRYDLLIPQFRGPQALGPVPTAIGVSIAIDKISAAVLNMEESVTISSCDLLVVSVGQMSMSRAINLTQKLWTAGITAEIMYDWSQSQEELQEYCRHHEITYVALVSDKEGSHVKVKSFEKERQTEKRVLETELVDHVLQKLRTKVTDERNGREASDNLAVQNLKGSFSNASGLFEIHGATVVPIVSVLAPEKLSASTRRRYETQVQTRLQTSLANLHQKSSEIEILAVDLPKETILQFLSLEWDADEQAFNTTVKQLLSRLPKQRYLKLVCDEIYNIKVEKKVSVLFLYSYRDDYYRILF

| Structure (SMILES) | pIC50 [1] | pIC50 (GCN2 biochemical IC50, 4 nM GCN2, 2 μM ATP, 80 nM GFP-eIF2α, 90 min RT, read-out: GCN2 activity) |
| --- | --- | --- |
| CNC(=O)[C@]1(C)CC[C@@H](Nc2ncc3c(Br)nn(-c4ccc5c(c4)CN(C=O)CC5)c3n2)C1 [(1R,3R)-3-[[3-bromo-1-(2-formyl-3,4-dihydro-1H-isoquinolin-7-yl)pyrazolo [3,4-d]pyrimidin-6-yl]amino]-N,1-dimethyl-cyclopentanecarboxamide] | 6.70 to 7.60 |  |
| CNC(=O)[C@@H]1CC[C@@H](Nc2ncc3c(Br)nn(-c4cc(F)c(-c5cccnc5)c(C#N)c4)c3n2)C1 [(1R,3R)-3-[[3-bromo-1-[3-cyano-5-fluoro-4-(3-pyridyl)phenyl]pyrazolo[3,4-d]pyrimidin-6-yl]amino]-N-methyl-cyclopentane-carboxamide] | 6.70 to 7.60 |  |
| CNC(=O)[C@]1(C)CC[C@@H](Nc2ncc3c(Br)nn(-c4ccc(-c5nnc(C)s5)c(CC(C#N)CO)c4)c3n2)C1 (stereo partly drawn) [(1R,3R)-3-[[3-bromo-1-[3-(2-cyano-3-hydroxy-propyl)-4-(5-methyl-1,3,4-thiadiazol-2-yl)phenyl]pyrazolo[3,4-d]pyrimidin-6-yl]amino]-N,1-dimethyl-cyclopentanecarboxamide] | > 7.60 |  |
| CNC(=O)[C@]1(C)CC[C@@H](Nc2ncc3c(Br)nn(-c4ccc(-c5ncco5)c(CC#N)c4)c3n2)C1 [Example 45, (1R,3R)-3-((3-bromo-1-(3-(cyanomethyl)-4-(oxazol-2-yl)phenyl)-1H-pyrazolo[3,4-d]pyrimidin-6-yl)amino)-N,1-dimethylcyclopentane-1-carboxamide; 2,2,2-trifluoroacetic acid] |  | 6.70 to 7.60 |
| Cc1nc2c(F)cc(-n3nc(Br)c4cnc(N[C@@H]5CC[C@@H](C(=O)N6CCN(C)C(=O)C6)C5)nc43)cc2cc1F [4-((1R,3R)-3-((3-bromo-1-(3,8-difluoro-2-methylquinolin-6-yl)-1H-pyrazolo[3,4-d]pyrimidin-6-yl)amino)cyclopentane-1-carbonyl)-1-methylpiperazin-2-one] | 6.70 to 7.60 |  |
| CNC(=O)[C@]1(C)CC[C@@H](Nc2ncc3c(Br)nn(-c4cc(Cl)c(F)c(CC#N)c4)c3n2)C1 | 6.70 to 7.60 |  |
| CNC(=O)[C@]1(C)CC[C@@H](Nc2ncc3c(Br)nn(-c4ccc(-c5nnc(C(F)F)o5)cc4)c3n2)C1 [(1R,3R)-3-[[3-bromo-1-[4-[5-(difluoro-methyl)-1,3,4-oxadiazol-2-yl]phenyl]pyrazolo[3,4-d]pyrimidin-6-yl]amino]-N,1-dimethyl-cyclopentanecarboxamide] | 6.70 to 7.60 |  |
| C[C@]1(C(=O)NCCO)CC[C@@H](Nc2ncc3c(Br)nn(-c4cc(F)c5ncccc5c4)c3n2)C1 [(1S,3R)-3-[[3-bromo-1-(8-fluoro-6-quinolyl)pyrazolo[3,4-d]pyrimidin-6-yl]amino]-N-(2-hydroxyethyl)-1-methyl-cyclopentane-carboxamide] | 6.70 to 7.60 |  |
| CNC(=O)[C@]1(C)CC[C@@H](Nc2ncc3c(Br)nn(-c4ccc(-c5nnc(C)s5)c(CC(C)O)c4)c3n2)C1 (stereo partly drawn) [(1R,3R)-3-[[3-bromo-1-[3-(2-hydroxypropyl)-4-(5-methyl-1,3,4-thiadiazol-2-yl)phenyl]pyrazolo[3,4-d]pyrimidin-6-yl]amino]-N,1-dimethyl-cyclopentanecarboxamide] | 6.70 to 7.60 |  |
| CNC(=O)[C@]1(C)CC[C@@H](Nc2ncc3c(Br)nn(-c4ccc(-c5nnc(C(=O)NCCN(C)C)s5)cc4)c3n2)C1 [5-[4-[3-bromo-6-[[(1R,3R)-3-methyl-3-(methylcarbamoyl)cyclopentyl]amino]pyrazolo[3,4-d]pyrimidin-1-yl]phenyl]-N-[2-(dimethylamino)ethyl]-1,3,4-thiadiazole-2-carboxamide] | 6.70 to 7.60 |  |
| N#Cc1cc(-n2nc(Br)c3cnc(N[C@@H]4CC[C@@H](C(=O)N=S5(=O)CCNCC5)C4)nc32)cc2cccnc12 | 6.70 to 7.60 |  |
| CNC(=O)[C@]1(C)CC[C@@H](Nc2ncc3c(Br)nn(-c4cc(CN5CCCS5(=O)=O)c5ncccc5c4)c3n2)C1 [(1R,3R)-3-[[3-bromo-1-[8-[(1,1-dioxo-1,2-thiazolidin-2-yl)methyl]-6-quinolyl]pyrazolo[3,4-d]pyrimidin-6-yl]amino]-N,1-dimethyl-cyclopentanecarboxamide] | 6.70 to 7.60 |  |
